Test results: BindingDB's records for patent US12435061 (Kamari Pharma, 2025)

Molecular target: T1, Transient receptor potential cation channel subfamily V member 3 (Homo sapiens, UniProt Q8NET8)
T1 sequence (Q8NET8 whole entry): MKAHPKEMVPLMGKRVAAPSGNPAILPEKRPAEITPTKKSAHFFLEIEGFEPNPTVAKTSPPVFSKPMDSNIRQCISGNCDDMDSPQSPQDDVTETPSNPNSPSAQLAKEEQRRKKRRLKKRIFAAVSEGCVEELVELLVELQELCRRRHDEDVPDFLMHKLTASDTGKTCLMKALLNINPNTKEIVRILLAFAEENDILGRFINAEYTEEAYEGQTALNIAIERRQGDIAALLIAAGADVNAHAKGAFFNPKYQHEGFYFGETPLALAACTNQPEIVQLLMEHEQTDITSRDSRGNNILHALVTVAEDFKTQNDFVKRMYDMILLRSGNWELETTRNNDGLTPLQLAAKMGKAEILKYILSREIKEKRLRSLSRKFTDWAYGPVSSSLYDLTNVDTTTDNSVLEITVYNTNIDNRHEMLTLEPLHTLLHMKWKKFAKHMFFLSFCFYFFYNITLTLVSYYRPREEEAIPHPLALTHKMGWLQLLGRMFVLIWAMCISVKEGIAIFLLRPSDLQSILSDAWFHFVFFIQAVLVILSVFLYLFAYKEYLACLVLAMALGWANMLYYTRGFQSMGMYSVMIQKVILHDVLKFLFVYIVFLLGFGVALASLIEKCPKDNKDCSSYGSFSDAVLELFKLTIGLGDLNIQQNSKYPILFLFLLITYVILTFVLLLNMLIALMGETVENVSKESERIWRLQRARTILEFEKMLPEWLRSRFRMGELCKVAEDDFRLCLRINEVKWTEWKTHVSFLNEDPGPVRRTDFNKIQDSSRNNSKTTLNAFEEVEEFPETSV
Experiment: Patch Clamp Experiments
Protocol: TRPV3 cells were induced 20-48 hours, removed from growth plates, and replated at low density (to attain good single-cell physical separation) on glass coverslips for measurement. In some cases, cells were grown in low density overnight on glass coverslips. Patch clamp recordings were made in the whole-cell mode with a holding potential of −40 mV. Every 5 seconds, a voltage ramp was applied from −120 to +100 mV, 400 ms in duration. Currents elicited were quantified at −80 mV and +80 mV. […] External solution was Ringer's solution described above.

SMILES	IC50
O=[N+](O)c1cc(-c2ccccc2)ccc1N1CC[C@H](Oc2ccc3cc(Cl)ccc3n2)C1 [US12435061, Compound 1-70]	> 3.2 µM
CCc1ccccc1Oc1ccc(N2CC[C@H](Oc3ccc(C(F)(F)F)cn3)C2)c(CO)n1 [US12435061, Compound 1-212]	> 3.2 µM
